{"source": "patent US20250276107A1", "about": "“HYDROGEL SYSTEMS AND METHODS FOR TREATING FISTULA AND OTHER INDICATIONS” (Terasaki Institute for Biomedical Innovation, priority 2024, published 2025)", "test_system": "red blood cells (RBCs)", "experiment": "Hemolysis test with diluted whole human blood", "format": "cell-based", "settings": "2 h, physiological temperature", "method": "In the development of bioadhesives, it is important to assess hemocompatibility to evaluate whether the materials damage the blood cells. For this purpose, a standard hemolysis test was performed by exposing crosslinked hydrogels to diluted sodium citrate-treated whole human blood for 2 h at physiological temperature. The presence of a toxic effect was assessed visually by observing the appearance of a red-colored supernatant after centrifugation, indicating the release of hemoglobin from ruptured red blood cells (RBCs). […] After incubation with hydrogels, intact RBCs were efficiently sedimented through centrifugation, similar to the saline negative control. […] The disruption of RBCs was further assessed through colorimetric analysis, with the calculated percent hemolysis induced by the hydrogels presented in FIG. 6A(II). The hemolysis level of the hydrogels at all tested PDA concentrations remained below the acceptable limit (≤5%).", "data": [{"substance": "Triton X-100", "values": [{"measurement": "supernatant colour after centrifugation (visual hemolysis)", "result": "reddish supernatant"}]}]}
